“Also recorded” adds a separate entry of the source.
Tests used:
[1] = target: T1, AR protein levels in LNCaP cells (Homo sapiens, UniProt P10275, T878A); assay: AR downregulation by western blot, LNCaP cells; assay type: cell-based; settings: LNCaP cells, 10, 50 or 100 μM, 24 h
T1 construct: endogenous in cells; host or cells: LNCaP
T1 sequence (P10275 1-920 T878A): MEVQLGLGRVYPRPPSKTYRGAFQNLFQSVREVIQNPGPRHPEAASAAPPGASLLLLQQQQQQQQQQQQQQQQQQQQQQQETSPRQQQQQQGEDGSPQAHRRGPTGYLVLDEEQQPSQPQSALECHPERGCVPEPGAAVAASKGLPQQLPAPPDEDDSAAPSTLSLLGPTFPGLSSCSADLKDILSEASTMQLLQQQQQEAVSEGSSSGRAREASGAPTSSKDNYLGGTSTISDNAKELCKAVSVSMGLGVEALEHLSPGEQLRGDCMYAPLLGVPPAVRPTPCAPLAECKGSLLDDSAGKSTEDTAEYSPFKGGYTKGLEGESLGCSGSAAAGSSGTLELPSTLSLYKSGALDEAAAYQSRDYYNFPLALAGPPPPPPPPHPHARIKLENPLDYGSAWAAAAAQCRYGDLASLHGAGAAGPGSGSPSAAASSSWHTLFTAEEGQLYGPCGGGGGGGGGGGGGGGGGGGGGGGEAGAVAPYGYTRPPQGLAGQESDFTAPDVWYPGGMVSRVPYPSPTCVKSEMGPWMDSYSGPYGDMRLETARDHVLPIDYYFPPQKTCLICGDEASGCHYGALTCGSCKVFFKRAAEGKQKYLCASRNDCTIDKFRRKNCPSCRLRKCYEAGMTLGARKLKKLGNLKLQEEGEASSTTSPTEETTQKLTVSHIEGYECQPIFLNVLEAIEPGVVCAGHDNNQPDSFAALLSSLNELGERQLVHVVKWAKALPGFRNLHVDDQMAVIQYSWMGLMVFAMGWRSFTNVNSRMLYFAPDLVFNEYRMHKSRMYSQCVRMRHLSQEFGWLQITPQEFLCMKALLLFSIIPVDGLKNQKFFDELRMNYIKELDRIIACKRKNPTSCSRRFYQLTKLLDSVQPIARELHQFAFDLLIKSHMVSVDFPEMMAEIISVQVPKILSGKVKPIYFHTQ
Protocol: Compounds that down regulate the levels of AR in prostate cancer may be effective in androgen dependent cells and anti-androgen resistant cells that over express the androgen receptor. […] LNCaP or CRW22RV1 cells were treated with 10 μM, 50 μM or 100 μM compound for 24 h. Cells were harvested and lysed. Cell lysates were analyzed by SDS-PAGE followed by immunostaining with anti-AR and anti-lamin antibodies (see FIGS. 15 and 16).

LNCaP cells [2] = assay: Clonogenic assay / in vitro selection for antiandrogen resistance; assay type: cell-based; settings: RPMI + 10% DCC-FBS
Protocol: Clonogenic assays are performed by a modification of the procedure described by Nara et al. (Cancer Research 2003, 63, 149-153). […] Media was changed every three days was and documented weekly. If cells reach 95% confluence, the cells were counted and reseeded at a density of 80,000 cell per well.

LNCaP cells [3] = assay: LIVE/DEAD cytotoxicity assay; assay type: cell-based; settings: 1 μM, nine days, RPMI + 10% DCC-FBS
Protocol: FIG. 1. […] The pictures were taken after nine days of incubation in RPMI supplemented with 10% DCC-FBS plus indicated antiandrogens. B and C. Quantitative analysis of images.
Media was changed every 3 days and floating cells were centrifuged down and reseeded into dish. LIVE/DEAD reagent was added after 9 days culturing. Live cells (indicated by green fluorescence) were counted and compared to the number of dead cells (red).

[4] = In vivo tolerability of PAN52; parameters: species or system Male C57Bl/6 mice; settings: 25 mg/kg/day IP in 9:1 Cremophor, 3 day or 5 day course
mouse prostates = assay: Prostate apoptosis by TUNEL after IP PAN52; assay type: in vivo, Male C57Bl/6 mice; settings: 25 mg/kg/day IP, day 3 and day 5, TUNEL
Protocol: FIG. 17. Quantification of apoptotic cells from prostate tissues where mice were treated short-term by intraperitoneal (IP) injection with PAN52 at 25 mg/kg/day versus vehicle control for either 3 days or 5 days (right). Single 20× magnification fields from each of four lobes of mouse prostate glands were counted in each mouse.

CN(C)CCCOc1cccc(-c2ccccc2S(=O)(=O)CC(C)(O)C(=O)Nc2ccc(C#N)c(C(F)(F)F)c2)c1 (centres unmarked) [PAN52]
AR protein levels relative to bicalutamide, DHT or DMSO controls [1]: downregulation of AR protein levels
Ability to evade resistance in in vitro selections (resistant LNCaP clones) (LNCaP cells [2]): evade resistance
Viable cells (green) in fluorescence images (LNCaP cells [3]): almost all cells
Behavior in grooming or feeding [4]: no abnormal behavior in grooming or feeding
Apoptosis in prostate compared to control (mouse prostates): increase in apoptosis; also recorded: induced rapid apoptosis
